Data on nine compounds can be found in ChEMBL document CHEMBL1150691, “New lysophosphatidylcholines and monoglycerides from the marine sponge Stelletta sp” (2003).

What all share (format): functional
Details in all cases: read-out: ED50 (the source's name)

The test system of one assay is A549. Nature of the assay: Cytotoxicity against human A549 cells.
A further assay relates to SK-OV-3. Nature of the assay: Cytotoxicity against human SKOV3 cells.
The test system of a further assay is SK-MEL-2. Nature of the assay: Cytotoxicity against human SK-MEL-2 cells.
Another assay deals with XF498. Nature of the assay: Cytotoxicity against human XF498 cells.
The subject of a further assay is HCT-15. In words: Cytotoxicity against human HCT15 cells.

Converted amounts (≈) assume the structure as drawn.

Turning to `CC(C)CCCCCCCCCC(C)C(=O)OC[C@@H](O)CO` (stereo not given in full), the EC50 in the assay with A549 amounted to 20 µg/mL (≈ 63.2 µM); in the assay on SK-OV-3 it was 38.9 µg/mL (≈ 123 µM); with SK-MEL-2, 21.8 µg/mL (≈ 68.9 µM); with XF498 it was 30.7 µg/mL (≈ 97 µM); in the assay with HCT-15, 18.6 µg/mL (≈ 58.8 µM).

Consider `CC(C)CCCCCCCCCCCCC/C=C\CCCC(=O)OC[C@@H](O)CO`, for which the EC50 with A549, in the assay with SK-OV-3, in the assay with SK-MEL-2, in the assay on XF498 and in the assay with HCT-15 was more than 30 µg/mL each time.

With `CC(C)CCCCCCCCCCCC/C=C\CC/C=C\CCCC(=O)OC[C@@H](O)CO`, the EC50 in the assay on A549, in the assay on SK-OV-3, with SK-MEL-2, in the assay on XF498 and in the assay on HCT-15 was more than 30 µg/mL each time.

As to `C=CCCCCC(C)CCC/C=C\C#CCC[C@H](OC)C(=O)OC[C@@H](O)COP(=O)([O-])CC[N+](C)(C)C` (stereo not given in full), the EC50 with A549 was found to be 11.8 µg/mL (≈ 21.7 µM); with SK-OV-3 it was 14.5 µg/mL (≈ 26.7 µM); in the assay on SK-MEL-2 it was 9.1 µg/mL (≈ 16.7 µM); in the assay on XF498, 13.6 µg/mL (≈ 25 µM); in the assay on HCT-15, 15.1 µg/mL (≈ 27.8 µM).

Take `C=CCCCCC(C)CCC/C=C\C#CCC[C@H](OC)C(=O)OC[C@@H](O)CO` (stereo not given in full): the EC50 in the assay on A549 was 31.3 µg/mL (≈ 79.3 µM); with SK-OV-3 it was more than 30 µg/mL; in the assay with SK-MEL-2 it was more than 30 µg/mL; with XF498, 42.5 µg/mL (≈ 108 µM); with HCT-15 it was more than 30 µg/mL.

With `COC(=O)CCCCCCCCCCCCCCCCO`, the EC50 in the assay on A549, with SK-OV-3, in the assay on SK-MEL-2, with XF498 and with HCT-15 was more than 30 µg/mL in each case.

As for `COC(=O)CCCCCCCCCCCCCCO`, the EC50 in the assay with A549 is 25.9 µg/mL (≈ 95.1 µM); with SK-OV-3, 35.7 µg/mL (≈ 131 µM); with SK-MEL-2, more than 30 µg/mL; in the assay on XF498, more than 30 µg/mL; in the assay with HCT-15, 16.5 µg/mL (≈ 60.6 µM).

Regarding `COc1cccc2c1C(=O)c1c(O)c3c(c(O)c1C2=O)C[C@@](O)(C(=O)CO)C[C@@H]3O[C@H]1C[C@H](N)[C@H](O)[C@H](C)O1` [DOXORUBICIN], the EC50 is 0.03 µg/mL (≈ 0.0552 µM) with A549; 0.13 µg/mL (≈ 0.239 µM) with SK-OV-3; 0.06 µg/mL (≈ 0.11 µM) in the assay on SK-MEL-2; 0.19 µg/mL (≈ 0.35 µM) with XF498; 0.29 µg/mL (≈ 0.534 µM) in the assay on HCT-15.

With `CC(C)CCCCCCCCCC(C)C(=O)OC[C@@H](O)COP(=O)([O-])CC[N+](C)(C)C` (stereo not given in full) [STELLETTACHOLINE B], the EC50 in the assay with A549 was determined as 7.4 µg/mL (≈ 15.9 µM); in the assay on SK-OV-3, 4.8 µg/mL (≈ 10.3 µM); with SK-MEL-2, 6.3 µg/mL (≈ 13.5 µM); with XF498, 24.1 µg/mL (≈ 51.8 µM); with HCT-15, 26.9 µg/mL (≈ 57.8 µM).
